≈ marks a conversion by molar mass, not a printed value. Read-outs that look alike come from different tables or passages of the source.
Key:
S. aureus 8810 = test: Broth microdilution antibacterial assay; format: cell-based, Staphylococcus aureus; details: for Selectivity index (CC50/IC50): MRC-5 CC50 / S. aureus IC50; for IC50 / MIC: Staphylococcus aureus, 8810; for IC50: average of two biological replicates ± S.D., read-out: IC50
Procedure: (§1) Antibacterial Assay Procedure
(§2) Broth Microdilution Assays
(§3) Media and solutions were autoclaved or sterile filtered prior to use and manipulations were carried out in a laminar flow hood. Antibacterial testing was performed in polypropylene 96 -well flat bottom plates. The minimal inhibitory concentration of blasticidin S ( 1) hydrochloride, P10 (2), and derivatives 15–22 were assessed against Staphylococcus aureus ΔNorA, S. aureus 8810, methicillin-resistant S. aureus (MRSA) ATCC 43300, Enterococcus faecalis ATCC 29212, vancomycin-resistant Enterococcus, Klebsiella pneumoniae ATCC 29665, Pseudomonas aeruginosa, and Acinetobacter baumannii ATCC 17978 using serial dilutions. Doxycycline (Gold Bio) as a positive control and the vehicle as a negative control. Stock solutions of each compound were prepared at 5.12 mg/mL in 50% DMSO/water and serially diluted in 50% DMSO/water to create master plates. From the master plates, 10 μL of each dilution was applied to test plates using a Bravo automated liquid transfer system (Agilent). Bacteria previously grown overnight (37 °C, 120 – 200 RPM), in LB broth were diluted to an OD600 of 0.0 5 in cation-adjusted Mueller-Hinton broth, grown to an OD600 of ~0.5, and diluted to an OD600 of 0.004 in cation-adjusted Mueller-Hinton broth. These diluted cultures were applied to the test plates (190 μL per test well) resulting in final concentrations of the test compounds of 256–2 μg/mL. Growth controls (wells with inoculated media but no vehicle or test compounds) were included to assess any potential toxicity from the vehicle. The plates were incubated at 37 °C for 16–18 h, except for VRE and E. faecalis, which were incubated at 37 °C for 24 h. Inhibition was determined by measuring the optical density at 600 nm (OD600) with a Cytation 3 plate reader (BioTek). The optical density measurements were normalized to the positive and negative controls and the vehicle and growth controls were compared and found to be indistinguishable, indicating no toxicity from the vehicle used. The MIC was the lowest concentration that inhibited >90% of growth. Two biological replicates were performed in duplicate. MIC values are reported […]
(§4) as a range from biological replicates. Inhibition curves were generated using Prism (GraphPad).
(§5) The IC50 values reported in Table 2 are the average of the two biological replicates ± standard […]
(§6) Cytotoxicity Assay Procedure
(§7) Human lung fibroblast cells, MRC -5 (CCL-171), were cultured at 37℃ with 5% CO2 and were plated at 5000 cells/well in a 96 -well plate. Compounds 1, 2, and 15-22 were initially prepared at concentrations of 5.12 mg/mL in a vehicle of 50% DMSO. Dilutions of the compounds (4 – 512 μg/mL) were then prepared in growth medium containing Dulbecco’s modified Eagle’s medium (DMEM) with high glucose, L -glutamine, and sodium pyruvate supplemented with 10% fetal bovine serum (FBS), 1% non -essential amino acids, and 0.1% gentamicin sulfate, and 25mM HEPES. The vehicle (50% DMSO) was also prepared via the sa me dilution series to serve as a control. Growth media was removed from the cells and replaced with the same volume of each compound dilution. Cells were incubated for 24 h , after which CellTiter 96® AQueous One Solution Reagent was added to each well as recommended by the manufacturer’s protocol (Promega CellTiter 96 AQueous One Solution Cell Proliferation Assay) and further incubated for 4 h. After incubation, absorbance was measured at 490 nm on an Infinite M plex multimode microplate reader with i -control Tecan software. Viability was calculated by subtracting media only absorbance values and normalizing to the vehicle control at each concentration. The presented data is one assay performed in triplicate that is representative of multiple trials. Data for the 256 and 512 μg/mL concentrations were removed from analysis due to vehicle toxicity […]
(§8) CC50 concentrations were determined via the ED50 Plus v1.0 software (https://archive.org/details/ed50v10_zip).

[1] = test system: methicillin-resistant S. aureus (MRSA) ATCC 43300; test: Broth microdilution antibacterial assay; format: cell-based, Staphylococcus aureus; details: for Selectivity index (CC50/IC50): MRC-5 CC50 / MRSA IC50; for IC50 / MIC: Staphylococcus aureus; for IC50: average of two biological replicates ± S.D., read-out: IC50
Procedure: as §1, §2, §3, §4, §5, §6, §7, §8

[2] = test system: Acinetobacter baumannii ATCC 17978; test: Broth microdilution antibacterial assay; format: cell-based; details: for IC50 / MIC: Acinetobacter baumannii, ATCC17978; for IC50: average of two biological replicates ± S.D., read-out: IC50; for Selectivity index (CC50/IC50): MRC-5 CC50 / A. baumannii IC50
Procedure: as §1, §2, §3, §4, §5, §6, §7, §8

[3] = test system: Enterococcus faecalis ATCC 29212; test: Broth microdilution antibacterial assay; format: cell-based; details: for MIC / IC50: Enterococcus faecalis, ATCC29212; for IC50: average of two biological replicates ± S.D. (18: one biological replicate), read-out: IC50; for Selectivity index (CC50/IC50): MRC-5 CC50 / E. faecalis IC50
Procedure: as §1, §2, §3, §4, §5, §6, §7, §8

[4] = test system: Klebsiella pneumoniae ATCC 29665; test: Broth microdilution antibacterial assay; format: cell-based; details: for IC50 / MIC: Klebsiella pneumoniae, ATCC29665, K. pneumoniae; for IC50: average of two biological replicates ± S.D., read-out: IC50; for MIC: lowest concentration inhibiting >90% of growth, range from biological replicates, read-out: MIC; for Selectivity index (CC50/IC50): MRC-5 CC50 / K. pneumoniae IC50
Procedure: as §1, §2, §3, §4, §5, §6, §7, §8

Pseudomonas aeruginosa = test: Broth microdilution antibacterial assay; format: cell-based; details: for Selectivity index (CC50/IC50): MRC-5 CC50 / P. aeruginosa IC50; for IC50 / MIC: Pseudomonas aeruginosa; for IC50: average of two biological replicates ± S.D., read-out: IC50
Procedure: as §1, §2, §3, §4, §5, §6, §7, §8

[5] = test system: Staphylococcus aureus ΔNorA; test: Broth microdilution antibacterial assay; format: cell-based; details: for Selectivity index (CC50/IC50): MRC-5 CC50 / S. aureus ΔNorA IC50; for IC50 / MIC: Staphylococcus aureus
Procedure: as §1, §2, §3, §4, §5, §6, §7, §8

[6] = test system: vancomycin-resistant Enterococcus (VRE); test: Broth microdilution antibacterial assay; format: cell-based; details: for MIC / IC50: Enterococcus, VRE; for IC50: average of two biological replicates ± S.D., read-out: IC50; for Selectivity index (CC50/IC50): MRC-5 CC50 / VRE IC50
Procedure: as §1, §2, §3, §4, §5, §6, §7, §8

in vitro = format: cell-based, human; details: human; MRC-5 (lung fibroblast); 24 h; one biological replicate (n = 3); read-out: CC50 for human cells
Procedure: as §4, §5, §6, §7, §8
Figure S41. The effect of compounds on cell viability. The lines represent non -linear regression curves, and error bars represent means ± […]
SD (n=3). […]

[7] = S. aureus, lowest concentration inhibiting >90% of growth, range from biological replicates, read-out: MIC
[8] = average MIC, Table S3, read-out: Average Activity against S. aureus
[9] = MRSA, lowest concentration inhibiting >90% of growth, range from biological replicates, read-out: MIC
[10] = average MIC, Table S3, read-out: Average Activity against MRSA
[11] = A. baumannii, lowest concentration inhibiting >90% of growth, range from biological replicates, read-out: MIC
[12] = E. faecalis, 24 h, lowest concentration inhibiting >90% of growth, range from biological replicates, read-out: MIC
[13] = average MIC, Table S3, read-out: Average Activity against E. faecalis
[14] = P. aeruginosa, lowest concentration inhibiting >90% of growth, range from biological replicates, read-out: MIC
[15] = average MIC, Table S3, read-out: Average Activity against VRE
[16] = 24 h, lowest concentration inhibiting >90% of growth, range from biological replicates, read-out: MIC

SMILES | Selectivity index (CC50/IC50) (S. aureus 8810) | IC50 (S. aureus 8810; S. aureus) [µg/mL] | MIC (S. aureus 8810; [7]) [µg/mL] | MIC (S. aureus 8810; [8]) [µg/mL] | Selectivity index (CC50/IC50) [1] | IC50 ([1]; MRSA) [µg/mL] | MIC [1, 9] [µg/mL] | MIC [1, 10] [µg/mL] | IC50 ([2]; A. baumannii) [µg/mL] | Selectivity index (CC50/IC50) [2] | MIC [3, 12] [µg/mL] | IC50 ([3]; E. faecalis) [µg/mL] | MIC [3, 13] [µg/mL] | Selectivity index (CC50/IC50) [3] | IC50 [4] [µg/mL] | MIC [4] [µg/mL] | Selectivity index (CC50/IC50) [4] | Selectivity index (CC50/IC50) (Pseudomonas aeruginosa) | IC50 (Pseudomonas aeruginosa; P. aeruginosa) [µg/mL] | Selectivity index (CC50/IC50) [5] | further results
CN(CC[C@H](N)CC(=O)N[C@H]1C=C[C@H](n2ccc(N)nc2=O)O[C@@H]1C(=O)NCCO)C(=N)N [Compound 21] | 7.1 | 8.1 ± 0.7 (≈ 17.4 µM) | 64 (≈ 137 µM) | 64 (≈ 137 µM) | 4.9 | 11.8 ± 0.2 (≈ 25.3 µM) | 32 to 64 (≈ 68.7 to 137 µM) | 48 (≈ 103 µM) | 21.2 ± 0.6 (≈ 45.5 µM) | 2.7 | 32 (≈ 68.7 µM) | 22.3 ± 4 (≈ 47.9 µM) | 32 (≈ 68.7 µM) | 2.6 | 19.7 ± 0.5 (≈ 42.3 µM) | 64 (≈ 137 µM) | 3.0 | 1.7 | 34.1 ± 0.3 (≈ 73.3 µM) | 1.6 | MIC [2, 11]: 64 to 128 µg/mL (≈ 137 to 275 µM); MIC (Pseudomonas aeruginosa; [14]): 128 µg/mL (≈ 275 µM); IC50 [5]: 35.5 ± 2.5 µg/mL (≈ 76.3 µM); MIC [5]: 256 µg/mL (≈ 550 µM); MIC [6, 15]: 128 µg/mL (≈ 275 µM); MIC [6, 16]: 128 µg/mL (≈ 275 µM); IC50 [6]: 15.3 ± 3.3 µg/mL (≈ 32.9 µM); Selectivity index (CC50/IC50) [6]: 3.8; CC50 at 24 h (in vitro): 58.1 µg/mL (≈ 125 µM)
CCNC(=O)[C@H]1O[C@@H](n2ccc(N)nc2=O)C=C[C@@H]1NC(=O)C[C@@H](N)CCN(C)C(=N)N [Compound 16] | 26 | 5.3 ± 1.5 (≈ 11.8 µM) | 32 (≈ 71.2 µM) | 32 (≈ 71.2 µM) | 9.2 | 14.9 ± 1.6 (≈ 33.1 µM) | 32 (≈ 71.2 µM) | 32 (≈ 71.2 µM) | 35.7 ± 11 (≈ 79.4 µM) | 3.8 | 16 to 32 (≈ 35.6 to 71.2 µM) | 9.6 ± 4 (≈ 21.4 µM) | 16 (≈ 35.6 µM) | 14 | 60.1 ± 6.2 (≈ 134 µM) | 256 (≈ 570 µM) | 2.3 | 6.3 | 21.8 ± 2.7 (≈ 48.5 µM) | 7.0 | MIC [2]: 128 µg/mL (≈ 285 µM); MIC (Pseudomonas aeruginosa): 64 to 128 µg/mL (≈ 142 to 285 µM); IC50 [5]: 19.6 ± 1.8 µg/mL (≈ 43.6 µM); MIC [5]: 128 µg/mL (≈ 285 µM); MIC [6, 15]: 64 µg/mL (≈ 142 µM); MIC [6, 16]: 64 µg/mL (≈ 142 µM); IC50 [6]: 20.2 ± 8.1 µg/mL (≈ 44.9 µM); Selectivity index (CC50/IC50) [6]: 6.8; CC50 at 24 h (in vitro): 137 µg/mL (≈ 305 µM)
C#CCNC(=O)[C@H]1O[C@@H](n2ccc(N)nc2=O)C=C[C@@H]1NC(=O)C[C@@H](N)CCN(C)C(=N)N [Compound 19] | 9.2 | 3.6 ± 0.3 (≈ 7.83 µM) | 32 (≈ 69.6 µM) | 32 (≈ 69.6 µM) | 4.8 | 6.9 ± 1.2 (≈ 15 µM) | 16 to 32 (≈ 34.8 to 69.6 µM) | 24 (≈ 52.2 µM) | 21.1 ± 3.9 (≈ 45.9 µM) | 1.6 | 16 to 32 (≈ 34.8 to 69.6 µM) | 7.6 ± 1.5 (≈ 16.5 µM) | 16 (≈ 34.8 µM) | 4.4 | 40.4 ± 6.2 (≈ 87.9 µM) | 128 (≈ 279 µM) | 0.8 | 2.1 | 16.1 ± 0.9 (≈ 35 µM) | 2.0 | MIC [2, 11]: 128 µg/mL (≈ 279 µM); MIC (Pseudomonas aeruginosa; [14]): 64 µg/mL (≈ 139 µM); IC50 [5]: 16.2 ± 0.9 µg/mL (≈ 35.3 µM); MIC [5]: 64 to 128 µg/mL (≈ 139 to 279 µM); MIC [6, 15]: 64 µg/mL (≈ 139 µM); MIC [6, 16]: 64 µg/mL (≈ 139 µM); IC50 [6]: 21.1 ± 4.8 µg/mL (≈ 45.9 µM); Selectivity index (CC50/IC50) [6]: 1.6; CC50 at 24 h (in vitro): 33.1 µg/mL (≈ 72 µM)
